Laboratory results from PMC2529273, “Pharmacological Properties of DOV 315,090, an ocinaplon metabolite” (BMC Pharmacology, 2008).
“And” between values parts separate entries of the source, which are not always exact repeats. Equal values may be shown once. Read-outs that look alike come from different tables or passages of the source.

What was measured:
[1] = molecular target: T1, α3β2γ2S GABAA-R (Rattus norvegicus, UniProt P18508+P20236); assay: cell-based; type: cell-based; conditions: for EC50/DZ EC50: ratio to diazepam EC50; for Emax/DZ Emax: ratio to diazepam Emax
T1 sequence (P20236 29-493): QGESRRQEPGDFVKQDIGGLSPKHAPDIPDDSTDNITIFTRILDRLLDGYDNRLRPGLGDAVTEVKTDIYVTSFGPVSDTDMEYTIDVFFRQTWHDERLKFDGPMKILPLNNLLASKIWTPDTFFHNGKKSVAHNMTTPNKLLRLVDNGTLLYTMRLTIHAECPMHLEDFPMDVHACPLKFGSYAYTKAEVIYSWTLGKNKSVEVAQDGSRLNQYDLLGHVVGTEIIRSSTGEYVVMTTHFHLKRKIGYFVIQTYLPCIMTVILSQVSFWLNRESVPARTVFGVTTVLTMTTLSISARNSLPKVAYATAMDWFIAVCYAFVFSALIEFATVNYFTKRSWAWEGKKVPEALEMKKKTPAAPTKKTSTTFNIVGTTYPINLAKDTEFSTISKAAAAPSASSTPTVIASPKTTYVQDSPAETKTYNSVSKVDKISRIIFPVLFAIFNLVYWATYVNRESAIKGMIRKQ
T1 sequence (P63138 25-474 partner limits assumed): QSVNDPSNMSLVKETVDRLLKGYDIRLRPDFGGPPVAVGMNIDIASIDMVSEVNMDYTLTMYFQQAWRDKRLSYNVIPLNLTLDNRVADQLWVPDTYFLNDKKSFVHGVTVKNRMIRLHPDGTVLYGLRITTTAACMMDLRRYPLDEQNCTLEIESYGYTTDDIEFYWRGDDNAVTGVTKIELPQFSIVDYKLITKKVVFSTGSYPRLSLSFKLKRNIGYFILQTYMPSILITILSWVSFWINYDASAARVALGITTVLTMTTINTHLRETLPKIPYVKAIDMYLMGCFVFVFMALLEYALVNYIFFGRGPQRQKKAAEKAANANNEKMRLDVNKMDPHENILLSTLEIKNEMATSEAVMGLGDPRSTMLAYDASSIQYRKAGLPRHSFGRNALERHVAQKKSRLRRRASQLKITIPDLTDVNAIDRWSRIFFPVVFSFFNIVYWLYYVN
T1 sequence (P18508 39-466): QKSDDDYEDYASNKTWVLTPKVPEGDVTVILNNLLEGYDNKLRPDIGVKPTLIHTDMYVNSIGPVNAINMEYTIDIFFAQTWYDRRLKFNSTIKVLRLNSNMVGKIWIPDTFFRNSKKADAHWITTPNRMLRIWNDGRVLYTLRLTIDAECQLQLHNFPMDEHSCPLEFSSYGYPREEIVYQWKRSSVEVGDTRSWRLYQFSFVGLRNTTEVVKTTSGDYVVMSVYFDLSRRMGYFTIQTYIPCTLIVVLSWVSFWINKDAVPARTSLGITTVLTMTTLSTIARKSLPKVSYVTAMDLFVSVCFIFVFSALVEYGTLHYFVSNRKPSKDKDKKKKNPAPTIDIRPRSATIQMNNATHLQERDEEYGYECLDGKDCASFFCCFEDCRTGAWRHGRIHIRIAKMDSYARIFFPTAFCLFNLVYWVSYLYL
Procedure: (§1) cRNAs encoding GABAA-R α1, α2, α3, α5, β2 and γ2S subunits were injected into oocytes from Xenopus laevis. […] GABA (Sigma) was prepared as a 1 M stock solution in ND96. Microelectrodes of 1–3 MΩ when filled with 3 M KCl were used to record from oocytes in a recording chamber continuously perfused with ND-96 buffer solution. During data acquisition, oocytes were clamped at a holding potential of -70 mV. Drugs were applied by perfusion at a rate of approximately 50 μl sec^-1 for 20 s followed by a 120 s wash. […] All experiments were performed at room temperature (22–24°C).
(§2) GABA concentration-response data was obtained for each subunit combination, and the GABA EC10 was determined by nonlinear regression using the logistic equation. This concentration of GABA was used for modulation studies. Peak current measurements were normalized and expressed as a fraction of the peak control current measurements. Control responses to an EC10 concentration of GABA were re-determined after every 2 – 4 applications of modulator + GABA. […] Potentiation data from each oocyte was fitted to the equation Potentiation = Emax × [Drug]/([Drug + EC50) by non-linear regression (Prism, Graph-Pad software). […] Given the lack of consistency of this possible high affinity effect, we have omitted it in fitting our concentration-effect curves. The choice of fitting to a monophasic or biphasic equation had only a small effect on the EC50 for the major component of modulation.
(§3) Rat GABAA-Rs consisting of α1β2γ2S, α2β2γ2S, α3β2γ2S and α5β2γ2S subunits were expressed in Xenopus oocytes. […] Higher concentrations (in parentheses) were excluded from the fit due to a decline in potentiation at higher concentrations.

[2] = molecular target: T2, α5β2γ2S GABAA-R (Rattus norvegicus, UniProt P18508+P19969); assay: cell-based; conditions: for EC50/DZ EC50: ratio to diazepam EC50; for Emax/DZ Emax: ratio to diazepam Emax
T2 sequence (P19969 32-464 limits assumed): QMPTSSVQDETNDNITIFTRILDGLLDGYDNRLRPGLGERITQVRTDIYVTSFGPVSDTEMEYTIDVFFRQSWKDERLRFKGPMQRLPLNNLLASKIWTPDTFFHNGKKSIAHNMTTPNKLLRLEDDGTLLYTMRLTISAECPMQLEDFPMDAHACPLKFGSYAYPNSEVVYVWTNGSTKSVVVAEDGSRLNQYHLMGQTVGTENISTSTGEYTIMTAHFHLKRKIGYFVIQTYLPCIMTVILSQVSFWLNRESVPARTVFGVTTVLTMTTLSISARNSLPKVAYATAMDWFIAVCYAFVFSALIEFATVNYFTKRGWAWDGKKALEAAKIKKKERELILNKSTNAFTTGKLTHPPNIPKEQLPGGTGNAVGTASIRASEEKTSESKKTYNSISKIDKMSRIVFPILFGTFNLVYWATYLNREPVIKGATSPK
T2 sequence (P63138 25-474 partner limits assumed): as the sequence (P63138 25-474 partner limits assumed) above
T2 sequence (P18508 39-466): as the sequence (P18508 39-466) above
Procedure: as §1, §2, §3

[3] = molecular target: T3, α2β2γ2S GABAA-R (Rattus norvegicus, UniProt P18508+P23576); assay: cell-based; conditions: for EC50/DZ EC50: ratio to diazepam EC50; for Emax/DZ Emax: ratio to diazepam Emax
T3 sequence (P23576 29-451): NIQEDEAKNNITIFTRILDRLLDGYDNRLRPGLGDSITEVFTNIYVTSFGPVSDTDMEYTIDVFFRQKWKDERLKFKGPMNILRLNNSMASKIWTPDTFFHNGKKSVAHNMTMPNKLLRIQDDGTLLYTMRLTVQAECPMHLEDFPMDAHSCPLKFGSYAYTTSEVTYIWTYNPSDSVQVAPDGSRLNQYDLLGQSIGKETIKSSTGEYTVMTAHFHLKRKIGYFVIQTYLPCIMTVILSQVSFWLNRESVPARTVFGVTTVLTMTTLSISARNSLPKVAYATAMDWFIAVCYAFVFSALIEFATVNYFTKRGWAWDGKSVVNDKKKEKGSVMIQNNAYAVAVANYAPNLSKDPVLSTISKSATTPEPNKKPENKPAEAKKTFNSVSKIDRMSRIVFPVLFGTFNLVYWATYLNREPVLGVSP
T3 sequence (P63138 25-474 partner limits assumed): as the sequence (P63138 25-474 partner limits assumed) above
T3 sequence (P18508 39-466): as the sequence (P18508 39-466) above
Procedure: as §1, §2, §3

[4] = molecular target: T4, α1β2γ2S GABAA-R (Rattus norvegicus, UniProt P18508+P62813); assay: cell-based; conditions: for EC50/DZ EC50: ratio to diazepam EC50; for Emax/DZ Emax: ratio to diazepam Emax
T4 sequence (P62813 28-455): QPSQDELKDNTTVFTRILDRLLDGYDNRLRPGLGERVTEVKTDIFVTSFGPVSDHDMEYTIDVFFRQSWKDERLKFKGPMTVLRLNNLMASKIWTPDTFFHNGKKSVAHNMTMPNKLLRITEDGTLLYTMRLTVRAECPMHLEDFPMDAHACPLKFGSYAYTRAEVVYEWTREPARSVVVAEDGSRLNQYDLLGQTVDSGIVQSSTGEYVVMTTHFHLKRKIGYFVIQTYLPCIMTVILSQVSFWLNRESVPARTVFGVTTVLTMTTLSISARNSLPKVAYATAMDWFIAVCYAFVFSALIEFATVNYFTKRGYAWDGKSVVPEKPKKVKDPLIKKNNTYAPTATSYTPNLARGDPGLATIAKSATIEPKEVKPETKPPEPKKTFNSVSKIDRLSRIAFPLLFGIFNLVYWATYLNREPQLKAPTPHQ
T4 sequence (P63138 25-474 partner limits assumed): as the sequence (P63138 25-474 partner limits assumed) above
T4 sequence (P18508 39-466): as the sequence (P18508 39-466) above
Procedure: as §1, §2, §3

[5] = molecular target: T5, α2β2γ3 GABAA-R (Rattus norvegicus, UniProt P23576+P28473); assay: biochemical; type: binding; conditions: for IC50/DZ IC50: α2β2γ3, ratio to diazepam IC50
T5 construct: expressed in transfected cells; host or cells: HEK293 (CRL 1573), transient transfection
T5 sequence (P23576 29-451): as the sequence (P23576 29-451) above
T5 sequence (P63138 25-474 partner limits assumed): as the sequence (P63138 25-474 partner limits assumed) above
T5 sequence (P28473 18-467): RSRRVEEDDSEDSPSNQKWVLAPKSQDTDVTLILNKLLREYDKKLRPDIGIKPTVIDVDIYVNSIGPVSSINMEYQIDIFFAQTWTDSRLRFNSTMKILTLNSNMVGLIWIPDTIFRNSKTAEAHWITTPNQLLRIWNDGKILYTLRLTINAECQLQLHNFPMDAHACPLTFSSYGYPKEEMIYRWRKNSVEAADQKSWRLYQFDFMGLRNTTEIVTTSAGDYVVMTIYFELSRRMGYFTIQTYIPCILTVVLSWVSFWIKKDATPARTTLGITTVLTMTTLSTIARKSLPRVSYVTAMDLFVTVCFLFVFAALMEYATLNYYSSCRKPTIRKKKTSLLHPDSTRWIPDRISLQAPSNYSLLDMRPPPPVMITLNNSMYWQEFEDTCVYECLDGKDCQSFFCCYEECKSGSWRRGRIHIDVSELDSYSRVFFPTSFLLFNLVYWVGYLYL
Procedure: (§4) HEK293 cells (CRL 1573, American type Culture Collection, Rockville, MD, USA) were cultured in Dulbecco's modified Eagle's medium (D-MEM, Invitrogen, Carlsbad, CA, USA) supplemented with 10% fetal bovine serum (Invitrogen, Carlsbad, CA, USA) and 1% MEM Non-Essential Amino Acids Solution (Invitrogen, Carlsbad, CA, USA). cDNAs encoding rat GABAA-R subunits were in the following vectors: α1 and α5 in pRc/CMV, α2, α3, γ2S and γ3 in pcDNA3 and β2 in pcDNA1. The cells were transiently transfected (5 μg of each cDNA per 100 mm dish) using FuGene™ (Roche Diagnostics Corporation) at a 3:1 FuGene:DNA ratio. […] Forty-eight hours after transfection, cells were washed with ice-cold PBS, harvested and homogenized. Cell homogenates were centrifuged (100,000 g, 25 min) and washed three times by homogenization in ice-cold PBS buffer followed by centrifugation at 100,000 g for 25 min. The final pellets were stored at -20°C until needed.
(§5) The samples were then diluted with 5 ml of ice-cold buffer and filtered under vacuum through glass-fiber filters (GF/B Whatman). Filters were washed 3 times with 5 ml of buffer and the radioactivity was quantitated by liquid scintillation counting in 5 ml of Ecolite scintillation fluid (ICN). Non-specific binding determined in the presence of 100 μM Ro 15–1788 (Sigma-Aldrich) was subtracted from total binding to calculate specific binding. Data were analyzed by non-linear regression (Prism, Graph-Pad software).

[6] = molecular target: T1, α3β2γ2S GABAA-R; assay: biochemical; type: binding; conditions: for IC50/DZ IC50: ratio to diazepam IC50
Procedure: as §4, §5

[7] = molecular target: T6, α5β2γ3 GABAA-R (Rattus norvegicus, UniProt P19969+P28473); assay: biochemical; type: binding; conditions: for IC50/DZ IC50: α5β2γ3, ratio to diazepam IC50
T6 construct: expressed in transfected cells; host or cells: HEK293 (CRL 1573), transient transfection
T6 sequence (P19969 32-464 limits assumed): as the sequence (P19969 32-464 limits assumed) above
T6 sequence (P63138 25-474 partner limits assumed): as the sequence (P63138 25-474 partner limits assumed) above
T6 sequence (P28473 18-467): as the sequence (P28473 18-467) above
Procedure: as §4, §5

[8] = molecular target: T2, α5β2γ2S GABAA-R; assay: biochemical; type: binding; conditions: for IC50/DZ IC50: ratio to diazepam IC50
Procedure: as §4, §5

[9] = molecular target: T3, α2β2γ2S GABAA-R; assay: biochemical; type: binding; conditions: for IC50/DZ IC50: ratio to diazepam IC50
Procedure: as §4, §5

[10] = molecular target: T4, α1β2γ2S GABAA-R; assay: biochemical; type: binding; conditions: for IC50/DZ IC50: ratio to diazepam IC50
Procedure: as §4, §5

[11] = molecular target: T7, α1β2γ3 GABAA-R (Rattus norvegicus, UniProt P28473+P62813); assay: biochemical; type: binding; conditions: for IC50/DZ IC50: α1β2γ3, ratio to diazepam IC50
T7 construct: expressed in transfected cells; host or cells: HEK293 (CRL 1573), transient transfection
T7 sequence (P62813 28-455): as the sequence (P62813 28-455) above
T7 sequence (P63138 25-474 partner limits assumed): as the sequence (P63138 25-474 partner limits assumed) above
T7 sequence (P28473 18-467): as the sequence (P28473 18-467) above
Procedure: as §4, §5

[12] = in vivo; type: in vivo, rat
Procedure: At 1 h, corresponding to the time at which the anticonflict effect of ocinaplon was evaluated, the plasma concentration of DOV 315,090 is ~38% of the concentration of parent compound.
Figure 2 Pharmacokinetics of ocinaplon and DOV 315,090. Blood levels of ocinaplon (●,○) and DOV 315090 (▲,△) were determined at various times after i.v. (●,▲) or oral (○,△) administration of 5 mg/kg ocinaplon to rats. […] This animal may have regurgitated a portion of the dose (of the suspension).

[13] = α3β2γ2S, GABA EC10, mean ± SEM, read-out: pEC50 (converted)
[14] = α3β2γ2S, GABA EC10, number of oocytes in parentheses, read-out: EC50
[15] = α5β2γ2S, GABA EC10, mean ± SEM, read-out: pEC50 (converted)
[16] = α5β2γ2S, GABA EC10, number of oocytes in parentheses, read-out: EC50
[17] = α2β2γ2S, GABA EC10, number of oocytes in parentheses, read-out: EC50
[18] = α1β2γ2S, GABA EC10, number of oocytes in parentheses, read-out: EC50
[19] = [3H]Ro15-1788 displacement, α2β2γ3, n = 3, read-out: IC50
[20] = α2β2γ3, mean ± SEM, n = 3, read-out: pIC50 (converted)
[21] = [3H]Ro15-1788 displacement, n = 3, read-out: IC50
[22] = mean ± SEM, n = 3, read-out: pIC50 (converted)
[23] = [3H]Ro15-1788 displacement, α5β2γ3, n = 3, read-out: IC50
[24] = α5β2γ3, mean ± SEM, n = 3, read-out: pIC50 (converted)
[25] = [3H]Ro15-1788 displacement, α1β2γ3, n = 3, read-out: IC50
[26] = α1β2γ3, mean ± SEM, n = 3, read-out: pIC50 (converted)

## CN1C(=O)CN=C(c2ccccc2)c2cc(Cl)ccc21 [diazepam, reference compound]
[1]
  Emax: 232 ± 31%
[2]
  Emax: 224 ± 24%
[3]
  Emax: 157 ± 14%
[4]
  Emax: 144 ± 8%

## O=C(c1ccccn1)c1cnn2c(-c3ccncc3)ccnc12 [ocinaplon, 2-pyridinyl [7-(4-pyridinyl)pyrazolo[1,5-a]pyrimidin-3-yl]methanone]
[1]
  Emax: 181 ± 18%
[1]; [13]
  EC50: 6.92 µM
[1]; [14]
  EC50: 8.01 µM
[1]; α3β2γ2S
  EC50/DZ EC50: 87
  Emax/DZ Emax: 0.78
[2]
  Emax: 84 ± 4%
[2]; [15]
  EC50: 3.31 µM
[2]; [16]
  EC50: 3.5 µM
[2]; α5β2γ2S
  EC50/DZ EC50: 139
  Emax/DZ Emax: 0.37
[3]
  Emax: 150 ± 6%
[3]; [17]
  EC50: 9.12 µM
[3]; α2β2γ2S
  EC50/DZ EC50: 350
  Emax/DZ Emax: 0.95
[4]
  Emax: 132 ± 8%
[4]; α1β2γ2S, GABA EC10, mean ± SEM, read-out: pEC50 (converted)
  EC50: 2.69 µM
[4]; [18]
  EC50: 2.93 µM
[4]; α1β2γ2S
  EC50/DZ EC50: 77
  Emax/DZ Emax: 0.91
[5]; [19]
  IC50: 20 µM
[5]; [20]
  IC50: 18.2 µM
[5]
  IC50/DZ IC50: 115
[6]; [21]
  IC50: 7.7 µM
[6]; [22]
  IC50: 7.59 µM
[6]
  IC50/DZ IC50: 158
[7]; [23]
  IC50: 10 µM
[7]; [24]
  IC50: 9.77 µM
[7]
  IC50/DZ IC50: 120
[8]; [21]
  IC50: 9.6 µM
[8]
  IC50/DZ IC50: 355
[9]; [22]
  IC50: 24 µM
[9]
  IC50/DZ IC50: 759
[10]; [21]
  IC50: 6.3 µM
[10]
  IC50/DZ IC50: 218
[11]; [25]
  IC50: 2.3 µM
[11]; [26]
  IC50: 2.24 µM
[11]
  IC50/DZ IC50: 10.5
[12]; in vivo, rat, one animal excluded from the plot, 10 min after oral 5 mg/kg ocinaplon, may have regurgitated part of the dose, read-out: blood level
  concentration at 10 min: 470 ng/mL

## O=C(c1ccccn1)c1cnn2c(-c3cc[n+]([O-])cc3)ccnc12 [DOV 315,090, (7-(1-Oxidopyridin-1-ium-4-yl)pyrazolo [1,5-a]pyrimidin-3-yl)(pyridin-2-yl)methanone]
[1]
  Emax: 340 ± 35%
[1]; [13]
  EC50: 10 µM
[1]; [14]
  EC50: 10.2 µM
[1]; α3β2γ2S
  EC50/DZ EC50: 111
  Emax/DZ Emax: 1.46
[1]; α3β2γ2S, ratio to ocinaplon EC50
  EC50/OC EC50: 1.27
[1]; α3β2γ2S, ratio to ocinaplon Emax
  Emax/OC Emax: ~1.87
[2]
  Emax: 68 ± 8%
[2]; [15]
  EC50: 9.33 µM
[2]; [16]
  EC50: 10.1 µM
[2]; α5β2γ2S
  EC50/DZ EC50: 405
  Emax/DZ Emax: 0.30
[2]; α5β2γ2S, ratio to ocinaplon EC50
  EC50/OC EC50: 2.92
[2]; α5β2γ2S, ratio to ocinaplon Emax
  Emax/OC Emax: 0.81
[3]
  Emax: 139 ± 23%
[3]; α2β2γ2S, GABA EC10, mean ± SEM, read-out: pEC50 (converted)
  EC50: 12 µM
[3]; [17]
  EC50: 12.5 µM
[3]; α2β2γ2S
  EC50/DZ EC50: 482
  Emax/DZ Emax: 0.88
[3]; α2β2γ2S, ratio to ocinaplon EC50
  EC50/OC EC50: 1.37
[3]; α2β2γ2S, ratio to ocinaplon Emax
  Emax/OC Emax: 0.92
[4]
  Emax: 192 ± 4%
[4]; [18]
  EC50: 4.87 µM
[4]; α1β2γ2S
  EC50/DZ EC50: 128
  Emax/DZ Emax: 1.33
[4]; α1β2γ2S, ratio to ocinaplon EC50
  EC50/OC EC50: 1.66
[4]; α1β2γ2S, ratio to ocinaplon Emax
  Emax/OC Emax: 1.45
[5]; [19]
  IC50: 20 µM
[5]; [20]
  IC50: 19.1 µM
[5]
  IC50/DZ IC50: 120
[5]; α2β2γ3, ratio to ocinaplon IC50
  IC50/OC IC50: 0.98
[6]; [21]
  IC50: 9.3 µM
[6]; [22]
  IC50: 8.32 µM
[6]
  IC50/DZ IC50: 170
[6]; ratio to ocinaplon IC50
  IC50/OC IC50: 1.09
[7]; [23]
  IC50: 27 µM
[7]; [24]
  IC50: 26.3 µM
[7]
  IC50/DZ IC50: 323
[7]; α5β2γ3, ratio to ocinaplon IC50
  IC50/OC IC50: 2.59
[8]; [21]
  IC50: 22 µM
[8]; [22]
  IC50: 21.4 µM
[8]
  IC50/DZ IC50: 790
[8]; ratio to ocinaplon IC50
  IC50/OC IC50: 2.24
[9]; [21]
  IC50: 24 µM
[9]; [22]
  IC50: 23.4 µM
[9]
  IC50/DZ IC50: 760
[9]; ratio to ocinaplon IC50
  IC50/OC IC50: 0.89
[10]; [21]
  IC50: 7 µM
[10]; [22]
  IC50: 6.46 µM
[10]
  IC50/DZ IC50: 220
[10]; ratio to ocinaplon IC50
  IC50/OC IC50: 1.02
[11]; [25]
  IC50: 5.5 µM
[11]; [26]
  IC50: 5.37 µM
[11]
  IC50/DZ IC50: 25
[11]; α1β2γ3, ratio to ocinaplon IC50
  IC50/OC IC50: 2.40
[12]; rats, 1 h after administration of ocinaplon 5 mg/kg
  plasma concentration as % of the concentration of parent compound (ocinaplon): ~ 38% and 38%
